“Also recorded” adds a separate entry of the source. Ends that are not written are not given here.
Columns and labels:
[1] = Zeta potential of BMP LUVs in contact with peptides; type: binding; details: 0.33 µM peptide, 50 µM lipid (P:L 1:150), PBS pH 5.5, 25 °C, triplicate
Description: The interaction partners of CPPs that may mediate direct plasma membrane translocation remain undefined. It is therefore unclear which liposome system can be used to probe this activity. […] This permeabilization is consistent with a leaky fusion process, where peptide-induced contact between liposomes is required for leakage. In order to assess whether similar processes are involved with peptides of the d(X)TAT series, LUVs were loaded with calcein to probe leakage. LUVs were prepared with either 65:15:20 PC:PE:Chol or 77:19:4 BMP:PC:PE, lipid compositions consistent with plasma membrane /early endosomes (PM/EE) bilayers or late endosome (LE) bilayers, respectively[36],[37]. Peptides were added to liposomes suspensions at various peptide-to-lipid ratios, and the release of calcein was monitored by gel filtration. […] The mixtures were then added to a folded capillary zeta cell for measurement on a Zetasizer Nano-zs (Malvern). Instrument was set to hold at 25 °C and automatically determine the optimal voltage and attenuator positions for each measurement. Each sample was set to be measured three times by the instrument and the average of these measurements was used to determine the zeta potential for a single sample. This experiment was performed in triplicate for each condition.

[2] = tested on: MDA-MB-231 cells; assay: Delivery of TMR-k5 probe into live cells (nuclear staining); type: cell-based, human; details: MDA-MB-231, d(X)TAT at various concentrations + TMR-k5 20 μM, 1 h, fluorescence microscopy, biological triplicates
Excerpt: To test the relative delivery efficiency of the d(X)TAT peptides, the cell lines MDA-MB-231 (epithelial-like, human breast cancer, spindle-shaped) and Neuro-2a (mouse neuroblastoma with neuronal and amoeboid stem cell morphology) were chosen. These cell lines are routinely used in cancer research, neuroscience, and toxicology. In the context of this study, we rationalized that the distinct differences in origin and characteristics between MDA-MB-231 and Neuro-2a properties may be useful to assess the generality of the results obtained. MDA-MB-231 or Neuro-2a cells were incubated with d(X)TAT peptides at various concentrations and TMR-k5 (20 μM) for 1 h. Cells were then washed, incubated with the DNA stain Hoechst and the live/dead marker SYTOX green (or SYTOX blue), and imaged by fluorescence microscopy. The localization of TMR-k5 in individual nuclei was then assessed by measuring the overlap between TMR and Hoechst signals (Fig. 2, Figure S13). […] This is because, in our experience, dfTAT and dfTAT analogs display a threshold behavior where, below a certain endosomal concentration, endosomal leakage is not achieved. In contrast above this threshold most late endosomes are permeabilized. […] Our rationale was therefore to titrate cells with different concentrations of d(X)TAT agents, monitor how many cells display cytosolic/nuclear delivery of TMR-k5, and compare the different d(X)TAT peptides.
MDA-MB-231 and Neuro2a cells obtained from ATCC (breast cancer-derived epithelial) were cultured in humidified atmosphere at 5% CO2 and 37 °C. Cells were seeded in plastic 48-well plates (Fisher) for quantitative analysis or 8-well Labtek II plates (Fisher) for qualitative imaging at 100× magnification. The cells were grown to 80–90% confluency in a 37 °C humidified atmosphere containing 5% CO2. Cells were washed three times with Leibovitz’s L15 media (L15) (Fisher). Cells were then incubated with peptide and 20 µM of the TMR-k5 pentalysine probe at 37 °C for 1 h. This was followed by washing the cells three times with L15 supplemented with heparin (Sigma-Aldrich) (1 mg/mL) and an extra L15 wash. […] Additionally, the cell permeable dye Hoechst 33342 (Thermo Fisher Scientific o) was used for nuclear staining. Cells were imaged using an EVOS FL Auto 2 inverted microscope (Thermo Fisher Scientific). The microscope is equipped with a heating chamber maintained at 37 °C. Images were acquired using bright field imaging and five fluorescence filter sets: CFP (Ex = 436 ± 10 nm, Em = 480 ± 20 nm), RFP (Ex = 560 ± 20 nm, Em = 630 ± 35 nm), FITC (Ex = 488 ± 10 nm Em = 520 ± 20 nm), DAPI (Ex = 350 ± 50 nm, Em = 460 ± 25 nm), […]. For image viewing and processing individual images, the Celleste 4.0 software (Thermo Fisher Scientific) was used. Nuclear regions in 20× images where identified using Hoechst staining (the quantification process is described in Figure S13). The intensity of these objects in the TMR channel was then determined using the Celleste software. Cells stained by the SYTOX or DRAQ dyes were considered dead and not counted as positive for delivery. Cells displaying a nuclear TMR-k5 fluorescence above the fluorescence threshold determined for TMR-k5 alone were considered positive for delivery (if excluding SYTOX or DRAQ7 stain, and if visually showing stained nucleoli for confirmation of intracellular localization). The percentage of cells positive for TMR-k5 nuclear staining was then calculated, using Hoechst-stained cells to count the total number of cells present. […] Instead, this assay quantifies the number of cells in which the nuclear fluorescence of TMR-k5 is above a detection threshold. This threshold is dependent on the microscope, imaging conditions, and the concentration of TMR-k5 used during incubation (Figure S13). The reproducibility of all the experiments was assessed by performing experiments with independent batches of cell cultures on three different days (i.e., biological triplicates). […]

d(K(Ac))TAT: disulfide dimer of CXRKKRRQRRRG with X = lysine conjugated to an acetyl group (CK(Ac)RKKRRQRRRG-NH2; also: disulfide dimer)
effect on apparent zeta potential of BMP-rich LUVs [1]: largest effect
TMR-k5 delivery activity (cells with TMR-k5 nuclear staining) [2]: little to no TMR-k5 delivery is detected; also recorded: no detectable delivery activity; also recorded: does not have a delivery activity detectable

From PMC9510126, “Hydrophobicity is a key determinant in the activity of arginine-rich cell penetrating peptides” (Scientific Reports, 2022)
